Data taken from patent US4754059A, “Omega cycloalkyl prostaglandins” (G. D. Searle & Co., priority 1984, dated 1988).

Columns and labels:
gastric secretions = experiment: Dog gastric antisecretory activity (histamine-stimulated, Thomas-type gastric cannula); assay type: in vivo, beagle dogs; details: for ED50: Canis lupus familiaris, po, histamine stimulation
Method: The standard test used to detect gastric antisecretory activity is described as follows.
Adult female beagle dogs weighing 6-11 kg. are prepared with whole stomach simple Thomas-type gastric cannulas.
Following full recovery from the surgical implantation of the gastric cannula, the dogs are trained to stand quietly, though fully conscious, in Pavlov-type dog restraining slings and are accustomed to intravenous histamine infusion.
Experiments are initiated by depriving dogs of food, but not water, for 18 hours. With an initial infusion of 0.15M sodium chloride, at a constant rate of 6.5 ml/hr, gastric secretions collected in plastic bottles affixed to the cannula, are taken at 15 minute intervals and measured for volume to the nearest 0.1 ml. Following a 30-45 minute basal secretion period, the collection bottles are removed, dosing plugs inserted, and compound administered. A 3.0 ml saline wash follows immediately.
After the end of a 30 minute drug absorption period the stomachs are emptied, collection bottles again attached, and the collections resumed at 30 minute intervals. Simultaneously, the saline infusion is replaced with a continuous intravenous infusion of histamine dihydrochloride in saline at 15 ug/kg/hr for four hours. Gastric samples are analysed for pH and titratable acidity determinations.
An analysis of the data for each measured or derived variable compares observations recorded following treatment with variables obtained for the same group of animals receiving histamine stimulation alone. Three parameters, gastric juice volume (ml/30 min), acid concentration (mEq/L), and total acid output (mEq/30 min) are analyzed individually. The data thus obtained are analyzed using interval-by-interval paired Student's t-test or two-way analysis of variance to achieve an indication of potency and duration of action. Percentage inhibition is calculated using pooled mean values for the four hour treatment period. Duration of activity is defined as the length of time of significant inhibition.

[1] = tested on: lower esophageal sphincter; experiment: Contraction of the lower esophageal sphincter; details: no method given
[2] = Diarrheogenic activity in rats; assay type: in vivo, Charles River rats
Method: Diarrhea is an undesirable side effect commonly associated with antisecretory and cytoprotective prostaglandins.
Groups of six adult male Charles River rats, weight range 180 to 200 grams, are fasted for 24 hours prior to administering the test substance. The prostaglandin to be tested is administered intragastrically in iso-osmotic phosphate buffer at a volume of 10 ml/kg at doses ranging from 100 to 3000 microgram/kg. Control animals receive only the vehicle. The rats are placed in individual wire mesh cages and the trays lined with brown paper. Diarrhea is assessed at hourly intervals on an all or none basis for up to eight hours after administration of the prostaglandin. Diarrhea is defined as any loose or watery stool. ED50 values are assessed for each hourly diarrheogenic response.

[3] = intragastric administration, dog

SMILES	Dog antisecretory activity (in words) (gastric secretions; intragastric administration, dog, doses 0.3 and 1.0)	ED50 (gastric secretions; [3])	property of contracting the lower esophageal sphincter [1]	diarrheogenic properties (in words) [2]	antisecretory activity (in words) (gastric secretions)
COC(=O)CCC/C=C\C[C@H]1C(=O)C[C@@H](O)[C@@H]1/C=C/CC(C)(O)CCC1CCCC1 (relative stereo) [Compound II, reference compound]	Inactive at 0.3 and 1.0	–	–	–	–
COC(=O)CC/C=C\CC[C@H]1C(=O)C[C@@H](O)[C@@H]1/C=C/CC(C)(O)CCC1CC1 (relative stereo) [Example 1]	–	0.2 µg/kg	–	–	–
COC(=O)CC/C=C\CC[C@H]1C(=O)C[C@@H](O)[C@@H]1/C=C/CC(C)(O)CCC1CCCC1 (relative stereo) [Example 2]	–	0.3 µg/kg	contracting the lower esophageal sphincter	low	potent
COC(=O)CC/C=C\CC[C@H]1C(=O)C[C@@H](O)[C@@H]1/C=C/CC(C)(O)CCC1CCC1 (relative stereo) [Example 3]	–	–	–	low	potent
COC(=O)CC/C=C\CC[C@H]1C(=O)C[C@@H](O)[C@@H]1/C=C/CC(C)(O)CCC1(C)CC1 (relative stereo) [Example 7, methyl 7-[3α-hydroxy-2β-4-hydroxy-4-methyl-6-(1-methylcyclopropyl)-1-trans-hexenyl-5-oxocyclopentane]-1α-hept-4-cis-enoate]	–	0.3 µg/kg	–	–	–
